# From article PMC11945486, “TAS1R2/TAS1R3 Single-Nucleotide Polymorphisms Affect Sweet Taste Receptor Activation by Sweeteners: The SWEET Project” (Nutrients, 2025)
# No end group written: not given here.
# T1: human TAS1R2-P21L/TAS1R3-WT (Homo sapiens, UniProt Q7RTX0+Q8TE23, P21L)
# T1 construct: expressed in transfected cells; host or cells: HEK293T-Gα16gust44
# T1 sequence (Q8TE23 20-839 P21L): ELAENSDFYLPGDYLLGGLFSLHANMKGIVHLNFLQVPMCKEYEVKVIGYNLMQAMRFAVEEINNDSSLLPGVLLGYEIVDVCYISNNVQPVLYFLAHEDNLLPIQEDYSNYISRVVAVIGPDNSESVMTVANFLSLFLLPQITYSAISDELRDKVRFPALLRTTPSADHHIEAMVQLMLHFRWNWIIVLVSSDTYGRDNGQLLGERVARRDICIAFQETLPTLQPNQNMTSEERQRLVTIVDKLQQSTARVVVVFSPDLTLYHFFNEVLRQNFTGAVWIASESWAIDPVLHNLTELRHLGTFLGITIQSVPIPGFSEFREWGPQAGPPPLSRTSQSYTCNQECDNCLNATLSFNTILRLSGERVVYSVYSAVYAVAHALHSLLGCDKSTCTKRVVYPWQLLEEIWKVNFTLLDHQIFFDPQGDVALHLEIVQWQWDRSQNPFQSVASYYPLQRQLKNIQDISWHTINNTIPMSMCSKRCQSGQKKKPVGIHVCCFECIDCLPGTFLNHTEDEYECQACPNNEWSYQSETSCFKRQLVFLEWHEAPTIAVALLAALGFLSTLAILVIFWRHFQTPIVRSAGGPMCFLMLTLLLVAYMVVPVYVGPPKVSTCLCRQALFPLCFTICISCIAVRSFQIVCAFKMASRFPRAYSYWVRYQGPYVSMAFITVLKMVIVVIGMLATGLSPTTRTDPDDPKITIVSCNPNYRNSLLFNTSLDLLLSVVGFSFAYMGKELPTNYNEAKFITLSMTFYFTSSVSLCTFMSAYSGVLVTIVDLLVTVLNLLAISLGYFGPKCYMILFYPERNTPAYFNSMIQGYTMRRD
# T1 sequence (Q7RTX0 21-852): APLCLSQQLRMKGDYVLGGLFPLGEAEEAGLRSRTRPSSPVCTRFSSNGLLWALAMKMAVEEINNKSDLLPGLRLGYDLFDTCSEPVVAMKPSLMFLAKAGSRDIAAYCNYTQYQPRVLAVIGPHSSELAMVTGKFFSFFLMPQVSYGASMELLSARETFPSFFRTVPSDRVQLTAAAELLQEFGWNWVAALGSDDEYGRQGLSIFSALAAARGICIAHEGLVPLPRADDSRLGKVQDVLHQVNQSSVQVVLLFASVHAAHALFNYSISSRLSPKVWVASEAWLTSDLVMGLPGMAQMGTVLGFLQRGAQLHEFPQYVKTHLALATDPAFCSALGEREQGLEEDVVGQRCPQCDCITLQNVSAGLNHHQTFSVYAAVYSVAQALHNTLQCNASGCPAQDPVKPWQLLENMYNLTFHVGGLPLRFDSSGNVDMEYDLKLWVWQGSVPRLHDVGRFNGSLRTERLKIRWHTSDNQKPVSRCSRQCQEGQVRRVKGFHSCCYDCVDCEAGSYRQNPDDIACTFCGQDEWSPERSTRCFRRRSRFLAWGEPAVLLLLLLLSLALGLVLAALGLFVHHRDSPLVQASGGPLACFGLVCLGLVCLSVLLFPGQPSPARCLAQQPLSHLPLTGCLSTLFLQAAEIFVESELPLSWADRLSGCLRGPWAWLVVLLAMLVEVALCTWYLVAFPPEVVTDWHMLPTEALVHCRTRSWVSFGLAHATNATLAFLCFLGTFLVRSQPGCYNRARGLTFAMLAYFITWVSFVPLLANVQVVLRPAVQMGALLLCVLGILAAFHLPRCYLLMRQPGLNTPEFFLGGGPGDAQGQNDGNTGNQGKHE
# B1: thaumatin (protein)
# chain: ATFEIVNRCSYTVWAAASKGDAALDAGGRQLNSGESWTINVEPGTKGGKIWARTDCYFDDSGSGICKTGDCGGLLRCKRFGRPPTTLAEFSLNQYGKDYIDISNIKGFNVPMDFSPTTRGCRGVRCAADIVGQCPAKLKAPGGGCNDACTVFQTSEYCCTTGKCGPTEYSRFFKRLCPDAFSYVLDKPTTVTCPGSSNYRVTFCPTA
# modifications: Eight disulfides
# notes: sweet-tasting plant protein, E957
# Molecular target: T1, human TAS1R2-P21L/TAS1R3-WT
# Test: Calcium mobilisation assay, TAS1R2 variant P21L with TAS1R3-WT
# Assay type: cell-based
# Settings: for Max ΔF/F0: maximal signal amplitude
# Source text: The coding sequences for TAS1R2 and TAS1R3 were commercially synthesised, and the human codon was optimised for expression in human cells. The coding sequences of human TAS1R2 and TAS1R3 were subcloned and inserted into the mammalian expression vectors pcDNA6/myc-HisA and pcDNA4/myc-HisA (Invitrogen; Thermo Fisher Scientific; Illkirch, France) between the EcoRI and NotI restriction sites, generating the plasmids pcDNA6-TAS1R2 and pcDNA4-TAS1R3, respectively. To increase protein expression in mammalian cells, an upstream start codon was used, which was a sequence called MAX, corresponding to the QBI SP163 element also described in pcDNA4-HisMax (Invitrogen; Thermo Fisher Scientific; Illkirch, France). To measure the expression level of the receptor by immunohistochemistry, we used the FLAG sequence ([…]) in the C-terminal position, which encodes the FLAG tag epitope. SNP variants of TAS1R2 and TAS1R3 were constructed based on […], respectively, using site-directed mutagenesis (Genewiz; Leipzig, Germany).
# The HEK293T cells were kindly provided by Jay P. Slack (Givaudan Flavors Corporation; Cincinnati, OH, USA). HEK293T cells stably transfected with Gα16gust44 [43, 67] were seeded in poly-D-lysine-coated clear-bottom black 96-well plates (0.35 × 10^5 cells/well) in high-glucose DMEM supplemented with 2 mM GlutaMAX, 10% dialysed foetal bovine serum with penicillin/streptomycin and G418 (400 μg/mL) at 37 °C and 6.3% CO2 in a humidified atmosphere as previously reported. […] As a negative control, HEK293T cells were mock-transfected with the empty expression vector. After a further 24 h of incubation, the HEK293T cells were washed with C1 buffer (130 mM NaCl, 5 mM KCl, 10 mM HEPES pH 7.4 and 2 mM CaCl2). The 96-well plates containing the cells were then stimulated with sweet-tasting compounds. […] Different concentration ranges were tested depending on the sweet compound injected. The Ca^2+ changes were expressed as fractional changes in fluorescent light intensity: ΔF/F = (F − F0)/F0, where F was the fluorescent light intensity at each point, and F0 was the value of emitted fluorescent light prior to stimulus application. To calculate dose–response relationships, the changes in fluorescence upon stimulus application were averaged, mock-subtracted and baseline-corrected. The dose–response data obtained were adjusted using a 4-parameter logistic equation. The half-maximal effective concentrations (EC50 values) and maximal signal amplitudes were calculated using SigmaPlot software (version 15.0) (Systat Software; San Jose, CA, USA).
# For in vitro calcium mobilisation assay performed on hTAS1R2-SNPs, hTAS1R3-SNPs and mTAS1R3-I60T, 6 to 7 concentrations were tested for each sweet compound, plus buffer alone. All concentration–receptor combinations were measured in duplicate, and each experiment was repeated at least 4 times (8 wells/concentration). Results were expressed for each concentration as ΔF/F mean ± SEM and represented as dose–response curves.
Molecule,EC50,R1 = Variant EC50/WT EC50,Max ΔF/F0
OC[C@H]1O[C@H](O[C@]2(CCl)O[C@H](CCl)[C@@H](O)[C@@H]2O)[C@H](O)[C@@H](O)[C@H]1Cl [Sucralose],80 ± 13 µM,0.9,0.50 ± 0.03
"O=S(=O)(O)NC1CCCCC1 [Cyclamate, cyclamate]",2110 ± 55 µM,–,–
"C=C(C)[C@@H]1CC=C(/C=N/O)CC1 [Perillartine, perillartine]",26.3 ± 1.1 µM,1.5,1.35 ± 0.03
"C=C1C[C@@]23CC[C@H]4[C@@](C)(CCC[C@@]4(C)C(=O)O[C@@H]4O[C@H](CO)[C@@H](O)[C@H](O[C@@H]5O[C@H](CO)[C@@H](O)[C@H](O)[C@H]5O)[C@H]4O[C@@H]4O[C@H](CO)[C@@H](O)[C@H](O)[C@H]4O)[C@@H]2CC[C@]1(O[C@@H]1O[C@H](CO)[C@@H](O)[C@H](O[C@@H]2O[C@H](CO)[C@@H](O)[C@H](O)[C@H]2O)[C@H]1O[C@@H]1O[C@H](CO)[C@@H](O)[C@H](O)[C@H]1O)C3 [Rebaudioside M, rebaudioside M]",19.5 ± 0.9 µM,1.2,0.99 ± 0.02
"COc1ccc(CCC(=O)c2c(O)cc(O[C@@H]3O[C@H](CO)[C@@H](O)[C@H](O)[C@H]3O[C@@H]3O[C@@H](C)[C@H](O)[C@@H](O)[C@H]3O)cc2O)cc1O [NHDC, neohesperidin dihydrochalcone]",100 ± 5.1 µM,1.3,0.81 ± 0.02
thaumatin,–,0.4,0.19 ± 0.04
"CC1=CC(=O)NS(=O)(=O)O1 [Acesulfame K, acesulfame K]",374 ± 11 µM,0.5,0.24 ± 0.01
"brazzein (QDKCKKVYENYPVSKCQLANQCNYDCKLDKHARSGECFYDEKRNLQCICDYCEY; ends and bridges not checked; cysteine pairing not given here; UniProt P56552 1-54, looked up) [sweet-tasting protein obtained by recombinant production using the yeast Pichia pastoris]",–,1.1,1.09 ± 0.01
"C[C@H](CC[C@@H](O[C@@H]1O[C@H](CO[C@@H]2O[C@H](CO)[C@@H](O)[C@H](O)[C@H]2O)[C@@H](O)[C@H](O)[C@H]1O[C@@H]1O[C@H](CO)[C@@H](O)[C@H](O)[C@H]1O)C(C)(C)O)[C@H]1CC[C@@]2(C)[C@@H]3CC=C4[C@@H](CC[C@H](O[C@@H]5O[C@H](CO[C@@H]6O[C@H](CO)[C@@H](O)[C@H](O)[C@H]6O)[C@@H](O)[C@H](O)[C@H]5O)C4(C)C)[C@]3(C)[C@H](O)C[C@]12C [Mogroside V, mogroside V]",19.9 ± 1.1 µM,1.2,1.18 ± 0.02
COC(=O)[C@H](Cc1ccccc1)NC(=O)[C@H](CC(=O)O)NCCC(C)(C)C [Neotame],0.67 ± 0.16 µM,0.8,0.53 ± 0.04
B1,3.3 µM,–,–
